Earlier results, collected in US6544543B1, “Periodic constriction of vessels to treat ischemic tissue” (Advanced Cardiovascular Systems, Inc., priority 2000, dated 2003).

Columns and labels:
[1] = avidin tetramer binds four biotin molecules in solution, noncovalent interaction
[2] = avidin tetramer-biotin noncovalent interaction

binding constant [1]: about 10^15 M^−1
Substance: avidin: polypeptide of at least 128 amino acid residues, forms a tetramer, binds four biotin molecules; member of the affinity pair
half-life in vivo [2]: about 89 days
